Columns and labels:
[1] = test system: house fly (Musca domestica); experiment: Effect of the active ingredient:synergist ratio on the synergistic activity (flies)
[2] = test system: cotton bollworm (Helicoverpa armigera); experiment: Synergistic activity on cotton bollworm following topical application; conditions: in vivo
[3] = test system: house fly (Musca domestica); conditions: in vivo, topical_or_ocular, 1440 min
[4] = test system: house fly (Musca domestica); experiment: Effect on fecundity, on house fly; assay type: in vivo; conditions: 500 ppm in granulated sugar, 48 hours feeding; eggs of next 10 days
Procedure: Investigation of the Effect on Fecundity, on House Fly (Musca domestica)
Groups consisting of freshly hatched 50 male and 50 female flies were fed during 48 hours with granulated sugar comprising 500 ppm of material No. 441 and 484 of the present invention respectively, and the eggs layed on the next 10 days were raised. The fecundity-hindering effect was expressed as the quotient of the emerged flies in the treated and untreated groups. The experiments were performed in 4 replica.

[5] = test system: flies; experiment: Comparative investigations with known reference synergists on flies treated with carbofuran; assay type: in vivo; conditions: flies treated with carbofuran and 1000 ng of the synergist
Description: These SR50 ratios were compared to those of the new compounds prepared by us.

[6] = test system: mammals; conditions: cited from earlier work

Compound | 24 hour mortality (%) ([1]; carbofuran 20 ng/fly + synergist 80 ng/fly) | 24 hour mortality (%) ([1]; carbofuran 20 ng/fly + synergist 200 ng/fly) | 24 hour mortality (%) ([1]; carbofuran 20 ng/fly + synergist 400 ng/fly) | 24 hour mortality (%) ([1]; house fly, in vivo, topical_or_ocular) | Synergist ratio [2] | mortality % [3] | Hindering effect on fecundity [4] | Synergist ratio SR50 [5] | tumor provoking effect [6]
CC#CCOCc1ccc2c(c1)OCO2 [Compound 441, 5-[(But-2-ynyloxy)-methyl]-1,3-benzodioxole] | 62% | 67% | 90% | 95% | > 5 | 97% | 87% | 25.70 | 
CC#CCOC(c1ccc2c(c1)OCO2)C(C)C (stereo not drawn) [Compound 484, 5-[2-Methyl-1-(2-butynyloxy)-propyl]-1,3-benzodioxole] |  |  |  |  | > 5 | 63% | 90% |  | 
CCCCOCCOCCOCc1cc2c(cc1CCC)OCO2 [PBO] |  |  |  |  |  |  |  |  | suspected tumor provoking effect
